Laboratory results reported in US10568899B2, “Combinations of a mithramycin analogue and another chemotherapeutic agent for the treatment of triple negative breast cancer” (ENTRECHEM, S.L., priority 2015, dated 2020).

Experiments:
HBL-100 cells = test: MTT-based cell proliferation assay, single drugs and combinations (CI by CalcuSyn)
Procedure: (§1) All cell lines were cultured at 37° C. in a humidified atmosphere in the presence of a mixture of 5% CO2 and 95% air. Cells were grown in DMEM or in RPMI medium containing high glucose concentration (4,500 mg/liter) and antibiotics (penicillin at 100 mU/ml, streptomycin at 100 μg/ml) and supplemented with 10% FBS. Cell lines were provided by Drs. J. Losada and A. Balmain, (originally from Dr. J. W. Gray's Laboratory who in turn obtained them from the ATCC or from collections development in the laboratories of Drs. S. Ethier and A. Gazdar, to avoid errors occurring when obtained through “second-hand” sources) [Cancer Cell. (2006) 10:515-527]. Cell identities were verified by STR analyses [Oncogene (2014) 33:148-156].
(§2) Cells were plated in 24-well plates at 10,000-20,000 cells/well and cultured overnight in DMEM or RPMI+10% FBS. […] Cell proliferation was analyzed 48 and 72 hours later by an MTT-based assay as described in Cancer Res. (2005) 65:6801-6810.
(§3) Results are plotted as the mean±SD values of quadruplicates from two experiments.
(§4) To explore whether F(I) potentiated the action of drugs used in the therapy of TNBC, drug combination experiments were performed, and the results analyzed by the Chou and Talalay algorithm [Adv. Enzyme Regul.

MDA-MB-231 cells = test: as above
Procedure: as §1, §2, §3, §4

[1] = tested on: TNBC cell lines (HCC-70, HCC-3153, BT549, MDA-MB-231, HCC-1937, HBL-100, HCC-1187 and HS578T); test: MTT metabolism in panel of TNBC cell lines; type: cell-based
Procedure: as §1
Cells were plated in 24-well plates at 10,000-20,000 cells/well and cultured overnight in DMEM or RPMI+10% FBS. The next day medium was replaced with DMEM or RPMI containing different concentrations of F(I). Cell proliferation was analyzed 48 and 72 hours later by an MTT-based assay as described in Cancer Res. (2005) 65:6801-6810. […]
To analyze the potential antineoplastic effect of F(I) on TNBC, its action on a panel of eight representative TNBC cell lines (HCC-70, HCC-3153, BT549, MDA-MB-231 (MDAMB231), HCC-1937, HBL-100 (HBL100), HCC-1187 and HS578T) using MTT metabolism as readout of the effect of F(I) on cell number was evaluated. […]

[2] = tested on: MDA-MB-231 xenografted tumors; test: Xenograft study, tumour volume; type: in vivo, mice; details: F(I) 12 mg/kg intravenously every 3 days; FIG. 2
Procedure: Mice were manipulated at the animal facility of the CIC in Salamanca following legal guidelines. Female BALB/c nu/nu mice (7 weeks old) were obtained from Charles River Laboratories (Wilmington, Mass., USA). A total of 5×10^6 MDA-MB231 cells in 100 μL of DMEM and 100 μL of Matrigel (BD Biosciences) were injected subcutaneously into the right and left flank of each mouse. When tumours reached a mean volume of 100 mm^3, animals (n=32) were randomized into four groups (with equal average tumour volumes) (vehicle n=8, F(I) n=8, docetaxel n=8, and F(I)+docetaxel n=8). […] Tumour diameters were serially measured by callipers twice per week and tumour volumes were calculated by the following formula: volume=width^2×length/2. Mice were sacrificed on day 41. For biochemical and drug accumulation analyses, tumor samples were obtained after sacrifice of the animals by CO2 inhalation, and 6 hours after being treated with the different drugs, and immediately frozen in liquid nitrogen. The tumors were minced, washed with PBS, and homogenized (Dispomix, L&M Biotech, Holly Springs, N.C., USA) in ice-cold lysis buffer (1.5 mL/100 mg tumor). […]
Comparisons of continuous variables between two groups for the mice tumor model experiments were performed using a two-sided Student's t-test. […] All data were analyzed using the statistical software SPSS 21.0 (SPSS Inc., Chicago, Ill.). […]

[3] = F(I) concentration in the tumors; type: in vivo; details: 6 hours after the last treatment, F(I) 12 mg/kg intravenously, two tumors from two different mice
Procedure: (§5) Mice were manipulated at the animal facility of the CIC in Salamanca following legal guidelines. Female BALB/c nu/nu mice (7 weeks old) were obtained from Charles River Laboratories (Wilmington, Mass., USA). A total of 5×10^6 MDA-MB231 cells in 100 μL of DMEM and 100 μL of Matrigel (BD Biosciences) were injected subcutaneously into the right and left flank of each mouse. When tumours reached a mean volume of 100 mm^3, animals (n=32) were randomized into four groups (with equal average tumour volumes) (vehicle n=8, F(I) n=8, docetaxel n=8, and F(I)+docetaxel n=8). Mice were treated every four days intravenously with 12 mg/kg of F(I), and weekly, intraperitoneally with docetaxel 15 mg/kg. Tumour diameters were serially measured by callipers twice per week and tumour volumes were calculated by the following formula: volume=width^2×length/2. Mice were sacrificed on day 41. For biochemical and drug accumulation analyses, tumor samples were obtained after sacrifice of the animals by CO2 inhalation, and 6 hours after being treated with the different drugs, and immediately frozen in liquid nitrogen. The tumors were minced, washed with PBS, and homogenized (Dispomix, L&M Biotech, Holly Springs, N.C., USA) in ice-cold lysis buffer (1.5 mL/100 mg tumor). This homogenate was centrifuged at 10,000×g for 20 minutes at 4° C., and the supernatants were transferred to new tubes. […]

[4] = Body weight of treated mice; type: in vivo
Procedure: as §5

[5] = cited from earlier work

Cc1nc(Nc2ncc(C(=O)Nc3c(C)cccc3Cl)s2)cc(N2CCN(CCO)CC2)n1 [Dasatinib, dasatinib]
MTT metabolism mean, Assay 1 (HBL-100 cells; Dasatinib 0.5 μM alone): 61.25%
MTT metabolism mean, Assay 2 (HBL-100 cells; Dasatinib 0.5 μM alone): 65.30%
MTT metabolism mean, Assay 1 (HBL-100 cells; Dasatinib 1.0 μM alone): 61.08%
MTT metabolism mean, Assay 2 (HBL-100 cells; Dasatinib 1.0 μM alone): 64.94%
MTT metabolism mean, Assay 1 (HBL-100 cells; Dasatinib 2.0 μM alone): 58.58%
MTT metabolism mean, Assay 2 (HBL-100 cells; Dasatinib 2.0 μM alone): 58.48%
MTT metabolism mean, Assay 1 (MDA-MB-231 cells; Dasatinib 0.5 μM alone): 65.29%
MTT metabolism mean, Assay 2 (MDA-MB-231 cells; Dasatinib 0.5 μM alone): 62.89%
MTT metabolism mean, Assay 1 (MDA-MB-231 cells; Dasatinib 1.0 μM alone): 59.58%
MTT metabolism mean, Assay 2 (MDA-MB-231 cells; Dasatinib 1.0 μM alone): 63.07%
MTT metabolism mean, Assay 1 (MDA-MB-231 cells; Dasatinib 2.0 μM alone): 56.05%
MTT metabolism mean, Assay 2 (MDA-MB-231 cells; Dasatinib 2.0 μM alone): 55.89%

CC(=O)O[C@@]12CO[C@@H]1C[C@H](O)[C@@]1(C)C(=O)[C@H](O)C3=C(C)[C@@H](OC(=O)[C@H](O)[C@@H](NC(=O)OC(C)(C)C)c4ccccc4)C[C@@](O)([C@@H](OC(=O)c4ccccc4)[C@H]21)C3(C)C [Docetaxel, docetaxel]
MTT metabolism mean, Assay 1 (HBL-100 cells; Docetaxel 2.5 nM alone): 96.93%
MTT metabolism mean, Assay 2 (HBL-100 cells; Docetaxel 2.5 nM alone): 83.41%
MTT metabolism mean, Assay 1 (HBL-100 cells; Docetaxel 5 nM alone): 85.11%
MTT metabolism mean, Assay 2 (HBL-100 cells; Docetaxel 5 nM alone): 70.61%
MTT metabolism mean, Assay 1 (HBL-100 cells; Docetaxel 10 nM alone): 55.03%
MTT metabolism mean, Assay 2 (HBL-100 cells; Docetaxel 10 nM alone): 54.59%
MTT metabolism mean, Assay 1 (MDA-MB-231 cells; Docetaxel 2.5 nM alone): 84.46%
MTT metabolism mean, Assay 2 (MDA-MB-231 cells; Docetaxel 2.5 nM alone): 60.92%
MTT metabolism mean, Assay 1 (MDA-MB-231 cells; Docetaxel 5 nM alone): 69.03%
MTT metabolism mean, Assay 2 (MDA-MB-231 cells; Docetaxel 5 nM alone): 51.36%
MTT metabolism mean, Assay 1 (MDA-MB-231 cells; Docetaxel 10 nM alone): 38.17%
MTT metabolism mean, Assay 2 (MDA-MB-231 cells; Docetaxel 10 nM alone): 44.50%

CO[C@@H]([C@@H]1Cc2cc3cc(O[C@H]4CC(O[C@H]5CC(O)[C@H](O)C(C)O5)[C@H](O)C(C)O4)c(C)c(O)c3c(O)c2C(=O)[C@H]1O[C@H]1CC(O[C@H]2CC(O[C@H]3CC(O)[C@H](O)C(C)O3)[C@@H](O)C(C)O2)[C@H](O)C(C)O1)[C@@H](O)C(C)=O (stereo partly drawn) [F(I), demycarosyl-3D-β-D-digitoxosyl-mithramycin SK]
MTT metabolism mean, Assay 1 (HBL-100 cells; F(I) 10 nM alone): 85.52%
MTT metabolism mean, Assay 2 (HBL-100 cells; F(I) 10 nM alone): 99.53%
MTT metabolism mean, Assay 1 (HBL-100 cells; F(I) 50 nM alone): 66.35%
MTT metabolism mean, Assay 2 (HBL-100 cells; F(I) 50 nM alone): 62.85%
MTT metabolism mean, Assay 1 (MDA-MB-231 cells; F(I) 10 nM alone): 94.27%
MTT metabolism mean, Assay 2 (MDA-MB-231 cells; F(I) 10 nM alone): 96.65%
MTT metabolism mean, Assay 1 (MDA-MB-231 cells; F(I) 50 nM alone): 70.05%
MTT metabolism mean, Assay 2 (MDA-MB-231 cells; F(I) 50 nM alone): 59.26%
IC50 ([1]; 72 hours of treatment, all cell lines (FIG. 1)): < 100 nM
Effect on MTT metabolism ([1]; all the TNBC cell lines studied, 48 or 72 hours, different doses): decreased MTT metabolism of all the TNBC cell lines studied in a dose-dependent and time-dependent manner
Effect on tumor growth [2]: inhibitory effect on tumor growth
F(I) concentration in the tumors [3]: 2.2 µg/g
concentration at 6 h ([3]; female, BALB/c nu/nu, mouse, tumor, iv, 12 mg/kg): 3800 ng/g
Body weight ([4]; F(I) 12 mg/kg, FIG. 3): slight decrease initially
Tolerability ([4]; alone or in combination, suggested by body weights, FIG. 6): well tolerated
Toxicity in vivo relative to mithramycin (times less toxic) [5]: 10 times

Nc1ccn([C@@H]2O[C@H](CO)[C@@H](O)C2(F)F)c(=O)n1 [Gemcitabine, gemcitabine]
MTT metabolism mean, Assay 1 (HBL-100 cells; Gemcitabine 5 nM alone): 90.75%
MTT metabolism mean, Assay 2 (HBL-100 cells; Gemcitabine 5 nM alone): 88.93%
MTT metabolism mean, Assay 1 (HBL-100 cells; Gemcitabine 10 nM alone): 85.93%
MTT metabolism mean, Assay 2 (HBL-100 cells; Gemcitabine 10 nM alone): 83.52%
MTT metabolism mean, Assay 1 (HBL-100 cells; Gemcitabine 20 nM alone): 61.98%
MTT metabolism mean, Assay 2 (HBL-100 cells; Gemcitabine 20 nM alone): 80.59%
MTT metabolism mean, Assay 1 (MDA-MB-231 cells; Gemcitabine 5 nM alone): 77.29%
MTT metabolism mean, Assay 2 (MDA-MB-231 cells; Gemcitabine 5 nM alone): 90.99%
MTT metabolism mean, Assay 1 (MDA-MB-231 cells; Gemcitabine 10 nM alone): 67.76%
MTT metabolism mean, Assay 2 (MDA-MB-231 cells; Gemcitabine 10 nM alone): 84.33%
MTT metabolism mean, Assay 1 (MDA-MB-231 cells; Gemcitabine 20 nM alone): 48.14%
MTT metabolism mean, Assay 2 (MDA-MB-231 cells; Gemcitabine 20 nM alone): 64.95%

CCC1=C[C@@H]2CN(C1)Cc1c([nH]c3ccccc13)[C@@](C(=O)OC)(c1cc3c(cc1OC)N(C)[C@H]1[C@@](O)(C(=O)OC)[C@H](OC(C)=O)[C@]4(CC)C=CCN5CC[C@]31[C@@H]54)C2 [Vinorelbine, vinorelbine]
MTT metabolism mean, Assay 1 (MDA-MB-231 cells; Vinorelbine 1 nM alone): 94.11%
MTT metabolism mean, Assay 2 (MDA-MB-231 cells; Vinorelbine 1 nM alone): 73.02%
MTT metabolism mean, Assay 1 (MDA-MB-231 cells; Vinorelbine 3 nM alone): 84.61%
MTT metabolism mean, Assay 2 (MDA-MB-231 cells; Vinorelbine 3 nM alone): 71.99%
MTT metabolism mean, Assay 1 (MDA-MB-231 cells; Vinorelbine 5 nM alone): 84.42%
MTT metabolism mean, Assay 2 (MDA-MB-231 cells; Vinorelbine 5 nM alone): 56.42%
